Laboratory results taken from patent US10023565B2, “N,N′ substituted piperidinamine compounds, and preparation method and usage thereof” (Institute of Pharmacology and Toxicology Academy of …, priority 2013, dated 2018).
Like-named read-outs stand apart in the source and are kept apart here.

How the values were obtained:
A549 = test: Extended test against tumor cell lines (ATPlite); format: cell-based; conditions: A549 (lung cancer), 72 hours
Description: (§1) The compounds of Examples 36/37/40/47/49 were used to carry out extended test against tumor cell lines, wherein 12 kinds of cells were selected, including liver cancer cells, gastric cancer cells, pancreatic cancer cells, colorectal cancer cells, lung cancer cells and normal cells, which were shown in Table 12:
(§2) A 100 mm culture dish with overgrown adherent cells was digested with 1 ml 0.25% trypsin (GIBCO) at 37° C. for 5 min, and the reaction was terminated with 2 ml culture medium (containing 10% FBS, GIBCO). The cells were scattered and collected, after counting, diluted to 1×10^5 cells/ml, and seeded into a 96-well plate at 50 μl/well, 5000 cells/well, excluding the peripheral circle of wells in which no cell was added, but PBS was added, 54 wells in total, and then incubated at 37° C. for 24 hours for adhering.
(§3) The test sample was diluted to final concentration of 4, 1, 0.25, 0.063, 0.016 μM, culture medium was filled in control well, 3 parellel wells were set for each concentration, 50 μl each well, followed by incubation at 37° C. for 72 hours.
(§4) 3) Test after incubation at 37° C. for 72 hours: 50 μL of ATPlite kitsubstrate solution was added in each well, and vibrated for 3 min, followed by placing aside in darkness for 10 min, and then supernatant 100 μl/well was taken and placed on a luminescence test plate; the luminescence test plate that has been fully incubated was placed in a luminescence test instrument, to read luminescence value.
(§5) Cell survival rate (%)=Experimental group RLU/control group RLU×100%. The experimental data were subjected to data analysis and processing by utilizing GraphPad software.

BGC823 = test: Extended test against tumor cell lines (ATPlite); format: cell-based; conditions: BGC823 (gastric cancer), 72 hours
Description: as §1, §2, §3, §4, §5

H460 = test: Extended test against tumor cell lines (ATPlite); format: cell-based; conditions: H460 (lung cancer), 72 hours
Description: as §1, §2, §3, §4, §5

COLO205 = test: Extended test against tumor cell lines (ATPlite); format: cell-based; conditions: COLO205 (colorectal cancer), 72 hours
Description: as §1, §2, §3, §4, §5

HT-29 = test: Extended test against tumor cell lines (ATPlite); format: cell-based; conditions: HT-29 (colorectal cancer), 72 hours
Description: as §1, §2, §3, §4, §5

MIA-PaCa-2 = test: Extended test against tumor cell lines (ATPlite); format: cell-based; conditions: MIA-PaCa-2 (pancreatic cancer), 72 hours
Description: as §1, §2, §3, §4, §5

Huh-7 = test: Extended test against tumor cell lines (ATPlite); format: cell-based; conditions: Huh-7 (liver cancer), 72 hours
Description: as §1, §2, §3, §4, §5

[1] = test system: MRC5 (lung epithelial fibroblast); test: Extended test against tumor cell lines (ATPlite); format: cell-based; conditions: MRC5 (normal cells), 72 hours
Description: as §1, §2, §3, §4, §5

[2] = test system: WI-38 (human embryonic lung fibroblast); test: Extended test against tumor cell lines (ATPlite); format: cell-based; conditions: WI-38 (normal cells), 72 hours
Description: as §1, §2, §3, §4, §5

N87 = test: Extended test against tumor cell lines (ATPlite); format: cell-based; conditions: N87 (gastric cancer), 72 hours
Description: as §1, §2, §3, §4, §5

AsPC-1 = test: Extended test against tumor cell lines (ATPlite); format: cell-based; conditions: AsPC-1 (pancreatic cancer), 72 hours
Description: as §1, §2, §3, §4, §5

HepG2 = test: Extended test against tumor cell lines (ATPlite); format: cell-based; conditions: HepG2 (liver cancer), 72 hours
Description: as §1, §2, §3, §4, §5

BT/Lap^R1.0 = test: Antitumor bioactivity evaluation, breast cancer cells (ATPlite); format: cell-based, human
In short: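 ATPlite luminescence read-out after 72 h exposure at 37 °C; cell survival expressed as % of solvent-matched control RLU. Compound tested at 5 μM final, with or without 1 μM lapatinib, on cells plated 24 h earlier at 5000 per well.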

In the case of `CSc1nccc(N2CCC(N(C)Cc3ccc(C#N)cc3)CC2)n1` [Example 36, N-methyl-N-(4-cyanobenzyl)-N-[1-(2-methylthiopyrimidin-4-yl)piperidin-4-yl]amine], the Survival rate (A549; 0.016 μM) is reported as 98.9%, the Survival rate (A549; 0.063 μM) is reported as 97.6% and the Survival rate (A549; 0.25 μM) is reported as 95.3%. It also gave a Survival rate (A549; 1 μM) of 75.8%, a Survival rate (A549; 4 μM) of 46.5% and a Survival rate (BGC823; 0.016 μM) of 96.6%. It also gave a Survival rate (BGC823; 0.063 μM) of 93.2%, a Survival rate (BGC823; 0.25 μM) of 89.1% and a Survival rate (BGC823; 1 μM) of 74.3%. For the same compound, the Survival rate (BGC823; 4 μM) was 27.7%, the Survival rate (H460; 0.016 μM) was 99.4% and the Survival rate (H460; 0.063 μM) was 99.3%. It also gave a Survival rate (H460; 0.25 μM) of 97.3%, a Survival rate (H460; 1 μM) of 93.6% and a Survival rate (H460; 4 μM) of 19.1%. For the same compound, the Survival rate (COLO205; 0.016 μM) was 96.7%, the Survival rate (COLO205; 0.063 μM) was 96.9% and the Survival rate (COLO205; 0.25 μM) was 95.3%. It also gave a Survival rate (COLO205; 1 μM) of 84.5%, a Survival rate (COLO205; 4 μM) of 4.9% and a Survival rate (HT-29; 0.016 μM) of 97.5%. It also gave a Survival rate (HT-29; 0.063 μM) of 94.3%, a Survival rate (HT-29; 0.25 μM) of 90.9% and a Survival rate (HT-29; 1 μM) of 79.0%. The Survival rate (HT-29; 4 μM) was 27.1%, the Survival rate (MIA-PaCa-2; 0.016 μM) was 91.6% and the Survival rate (MIA-PaCa-2; 0.063 μM) was 92.2%. It also gave a Survival rate (MIA-PaCa-2; 0.25 μM) of 91.2%, a Survival rate (MIA-PaCa-2; 1 μM) of 66.0% and a Survival rate (MIA-PaCa-2; 4 μM) of 22.2%. It also gave a Survival rate (Huh-7; 0.016 μM) of 90.9%, a Survival rate (Huh-7; 0.063 μM) of 88.2% and a Survival rate (Huh-7; 0.25 μM) of 83.0%. It also gave a Survival rate (Huh-7; 1 μM) of 65.4%, a Survival rate (Huh-7; 4 μM) of 14.3% and a Survival rate ([1]; 0.016 μM) of 96.8%. For the same compound, the Survival rate ([1]; 0.063 μM) was 96.1%, the Survival rate ([1]; 0.25 μM) was 91.0% and the Survival rate ([1]; 1 μM) was 76.1%. The Survival rate ([1]; 4 μM) was 39.1%, the Survival rate ([2]; 0.016 μM) was 93.9% and the Survival rate ([2]; 0.063 μM) was 93.7%. For the same compound, the Survival rate ([2]; 0.25 μM) was 91.5%, the Survival rate ([2]; 1 μM) was 82.0% and the Survival rate ([2]; 4 μM) was 51.1%. It also gave a Survival rate (N87; 0.016 μM) of 92.9%, a Survival rate (N87; 0.063 μM) of 96.7% and a Survival rate (N87; 0.25 μM) of 97.2%. It also gave a Survival rate (N87; 1 μM) of 77.1%, a Survival rate (N87; 4 μM) of 40.3% and a Survival rate (AsPC-1; 0.016 μM) of 96.8%. The Survival rate (AsPC-1; 0.063 μM) was 99.4%, the Survival rate (AsPC-1; 0.25 μM) was 94.9% and the Survival rate (AsPC-1; 1 μM) was 90.0%. For the same compound, the Survival rate (AsPC-1; 4 μM) was 57.2%, the Survival rate (HepG2; 0.016 μM) was 98.8% and the Survival rate (HepG2; 0.063 μM) was 97%. It also gave a Survival rate (HepG2; 0.25 μM) of 94.7%, a Survival rate (HepG2; 1 μM) of 77.1% and a Survival rate (HepG2; 4 μM) of 4.5%. The IC50 (BT/Lap^R1.0) was 1470 nM, the IC50 (BT/Lap^R1.0; Homo sapiens) was 1410 nM and the inhibition at 5 µM (BT/Lap^R1.0; Homo sapiens, test sample 5 μM, 72 hours, read-out: Inhibitory Rate % BT/Lap^R1.0) was 76.2%.
